What was measured:
[1] = system: Capan-1 pancreatic cancer cell line; assay: Cell viability assay (Capan-1); format: cell-based; settings: Homo sapiens, 240 h; Capan-1 cells, treated 10 days
Method: 3. Cell Viability Assay (Capan-1)
Cell viability assay was performed by using Capan-1 cell line to measure cytotoxicity of compounds in the present invention. Capan-1 pancreatic cancer cell line was seeded into 96-well plates at 37° C. under 5% CO2 atmosphere using IMDM (Sigma) containing 10% FBS (Hyclone). After 24 hr incubation, cells were treated with the invented compounds at various concentrations for 10 days. After 7-day incubation, the medium was changed. 10 days later, A fluorescence reagent was used to determine the IC50 values.

Tankyrase-1 = target: T1, Tankyrase-1 (Homo sapiens, UniProt O95271); assay: Tankyrase-1 enzyme assay; format: biochemical; settings: 1 hr at room temperature, chemiluminescent readout
T1 sequence (O95271 1-1327): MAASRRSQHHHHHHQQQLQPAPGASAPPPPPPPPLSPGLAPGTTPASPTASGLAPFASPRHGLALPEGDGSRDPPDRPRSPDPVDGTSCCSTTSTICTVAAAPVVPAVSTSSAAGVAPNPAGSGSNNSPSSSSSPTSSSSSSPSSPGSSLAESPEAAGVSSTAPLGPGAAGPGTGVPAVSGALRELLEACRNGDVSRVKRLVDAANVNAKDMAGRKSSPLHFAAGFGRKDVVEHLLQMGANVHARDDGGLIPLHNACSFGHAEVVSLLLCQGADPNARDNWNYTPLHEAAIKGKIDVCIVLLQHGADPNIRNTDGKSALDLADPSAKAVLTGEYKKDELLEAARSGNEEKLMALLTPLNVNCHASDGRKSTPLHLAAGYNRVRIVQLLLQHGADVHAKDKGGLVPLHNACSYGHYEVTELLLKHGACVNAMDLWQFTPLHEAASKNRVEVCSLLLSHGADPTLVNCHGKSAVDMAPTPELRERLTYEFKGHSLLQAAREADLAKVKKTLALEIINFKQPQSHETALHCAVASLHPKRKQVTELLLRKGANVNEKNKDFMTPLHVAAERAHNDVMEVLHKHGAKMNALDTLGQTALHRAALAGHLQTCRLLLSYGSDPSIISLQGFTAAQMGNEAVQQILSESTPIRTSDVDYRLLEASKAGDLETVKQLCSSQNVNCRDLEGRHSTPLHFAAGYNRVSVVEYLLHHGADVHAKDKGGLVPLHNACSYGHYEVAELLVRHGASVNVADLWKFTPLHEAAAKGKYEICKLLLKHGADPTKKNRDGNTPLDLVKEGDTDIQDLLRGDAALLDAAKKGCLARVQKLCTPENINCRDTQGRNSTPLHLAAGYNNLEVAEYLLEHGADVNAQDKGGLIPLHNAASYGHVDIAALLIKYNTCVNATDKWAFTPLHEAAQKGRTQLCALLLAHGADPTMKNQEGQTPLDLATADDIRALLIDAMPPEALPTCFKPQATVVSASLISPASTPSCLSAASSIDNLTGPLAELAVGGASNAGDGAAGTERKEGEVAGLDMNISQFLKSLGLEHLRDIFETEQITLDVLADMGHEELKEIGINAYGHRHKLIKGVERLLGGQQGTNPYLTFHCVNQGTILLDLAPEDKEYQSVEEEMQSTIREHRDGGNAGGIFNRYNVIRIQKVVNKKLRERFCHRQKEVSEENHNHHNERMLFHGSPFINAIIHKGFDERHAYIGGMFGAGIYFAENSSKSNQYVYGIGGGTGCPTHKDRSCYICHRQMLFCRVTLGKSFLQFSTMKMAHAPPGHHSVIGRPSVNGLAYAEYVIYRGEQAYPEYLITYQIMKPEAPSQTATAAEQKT
Method: 5. Tankyrase-1 Enzyme Assay
Tankyrase-1 enzyme assay was performed to determine Tankyrase-1 inhibitory activity of compounds in the present invention. The enzymatic reaction was conducted by coating the plate with substrates of tankyrase-1, and then the plate was washed. Compounds in the present invention serially diluted in DMSO were added to the reaction buffer activating tankyrase-1, and incubated for 1 hr at room temperature. After stopping the reaction, the plate was washed, and streptavidin-HRP was added to each well. IC50 was calculated by adding chemiluminescent substrate and immediately reading the sample in a microplate reader (Biotek).

[2] = system: LNCaP prostate cancer cell line; assay: Cell viability assay (LNCaP); format: cell-based; settings: Homo sapiens, 264 h; LNCaP cells, treated 11 days
Method: 4. Cell Viability Assay (LNCaP)
Cell viability assay was performed by using LNCaP cell line to measure cytotoxicity of compounds in the present invention. LNCaP prostate cancer cell line was seeded into 96-well plates at 37° C. under 5% CO2 atmosphere using RPMI-1640 (Hyclone) containing 10% FBS (Hyclone). After 24 hr incubation, cells were treated with the invented compounds at various concentrations for 11 days. The medium was changed every 3 to 4 day. 11 days later, A fluorescence reagent was used to determine the IC50 values.

[3] = system: MDA-MB-436 breast cancer cell line; assay: Cell viability assay (MDA-MB-436); format: cell-based; settings: Homo sapiens, 144 h; MDA-MB-436 cells, treated 6 days
Outline: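 MDA-MB-436 breast cancer cells in DMEM/F12 with 10% FBS, treated 24 h after seeding with graded compound concentrations for 6 days at 37 °C, 5% CO2, medium changed every 3 days. Viability read with a fluorescence reagent; IC50 derived.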

Mouse pharmacokinetics = format: in vivo; parameters: concentration or dose not given beside the values; settings: Balb/c male mice, blood samples 15 to 1140 min, LC-MS/MS
Method: To evaluate the pharmacokinetics test, the invented compounds (from I-25 to I-1171) were determined as follows. Blood samples are collected at 15, 30, 60, 120, 240, 480, 1140 min. Quantification is by using a LC-MS/MS method specific to the selected compound. Pharmacokinetics parameters are calculated using WinNonLinnon compartmental analysis software.

Solubility test in water = format: physicochemical; settings: 25° C., atmospheric pressure
Method: To evaluate the solubility, the invented compounds (I-159, I-161 and I-171) was determined as follows. The compounds was dissolve in water (1 mL, 10 mL and 100 mL) at 25° C. under an atmospheric pressure.

[4] = system: Capan-1 Human pancreatic cancer cells; assay: In vivo antitumoral efficacy, Capan-1 subcutaneous xenograft; settings: Capan-1 xenograft in Balb/c nude mice
Method: To evaluate the in vivo antitumoral efficacy, the invented compounds (I-80˜171) was determined as a result to follows.
Capan-1 Human pancreatic cancer cells were established as subcutaneous xenografts by injection of 8×10^6 cells into the flanks of adult female Balb/c nude mice. Mice with established tumors (160-250 mm^3) were selected for study (n=6/treatment group). The test compounds were formulated in DW and administered orally (po) at a dose of 30˜200 mg/kg. The vehicle alone was administered to control groups. Animals were dosed 5 days per week (Monday through Friday) for 3 consecutive weeks.
Animals were weighed and tumor size was determined twice weekly by caliper measurements, and tumor volumes were calculated (volume=[…] (mm^3), where l and w refer to the larger and smaller dimensions collected at each measurement). The mean tumor volumes of each group were calculated. The change in mean treated tumor volume was divided by the change in mean control tumor volume, multiplied by 100 and subtracted from 100% to give the tumor growth inhibition for each group.

[5] = 100 mg/kg po qd x 5, 3 consecutive weeks
[6] = 200 mg/kg po qd x 5, 3 consecutive weeks

SMILES	IC50 [1] [nM]	IC50 (Tankyrase-1) [nM]	IC50 [2] [nM]	IC50 [3] [nM]	AUC (Mouse pharmacokinetics) [ng·h/mL]	Solubility class in words (Solubility test in water)	% TGI [4, 5] [%]	% TGI [4, 6] [%]	% TGI ([4]; 30 mg/kg po qd x 5, 3 consecutive weeks) [%]	% TGI ([4]; 60 mg/kg po qd x 5, 3 consecutive weeks) [%]
CC(C)NC1CN(C(=O)c2cc(Cc3n[nH]c(=O)c4ccccc34)ccc2F)C1 [Compound I-32, 4-(4-fluoro-3-(3-(isopropylamino)azetidine-1-carbonyl)benzyl)phthalazin-1(2H)-one]	50 to 300	> 1000	50 to 300	≤ 5						
O=C(c1cc(Cc2n[nH]c(=O)c3ccccc23)ccc1F)N1CC(NC2(C(F)(F)F)CC2)C1 [Compound I-80, 4-(4-fluoro-3-(3-((1-(trifluoromethyl)cyclopropyl)amino)azetidine-1-carbonyl)benzyl)phthalazin-1(2H)-one]	50 to 300		50 to 300	≤ 5	2020		75.9	103.9		
O=C(c1cc(Cc2n[nH]c(=O)c3ccccc23)ccc1F)N1CC(NC2CCCC2)C1 [Compound I-27, 4-(3-(3-(cyclopentylamino)azetidine-1-carbonyl)-4-fluorobenzyl)phthalazin-1(2H)-one]	50 to 300	> 1000	50 to 300	≤ 5	472					
N#CC1(NC2CN(C(=O)c3cc(Cc4n[nH]c(=O)c5ccccc45)ccc3F)C2)CCC1 [Compound I-99, 1-((1-(2-fluoro-5-((4-oxo-3,4-dihydrophthalazin-1-yl)methyl)benzoyl)azetidin-3-yl)amino)cyclobutanecarbonitrile]	300 to 1000	300 to 1000	300 to 1000	5 to 50	586					
Cl.O=C(c1cc(Cc2n[nH]c(=O)c3ccccc23)ccc1F)N1CC(NC2CCCC2)C1 [Compound I-158, 4-(3-(3-(cyclopentylamino)azetidine-1-carbonyl)-4-fluorobenzyl)phthalazin-1(2H)-one hydrochloride]							44.9	80.9		
O=C(c1cc(Cc2n[nH]c(=O)c3ccccc23)ccc1F)N1CC(NCC2CC2)C1 [Compound I-33, 4-(3-(3-((cyclopropylmethyl)amino)azetidine-1-carbonyl)-4-fluorobenzyl)phthalazin-1(2H)-one]	300 to 1000	> 1000	300 to 1000	≤ 5	1020					

The next lines start with results.

IC50 [1] [nM]	IC50 (Tankyrase-1) [nM]	IC50 [2] [nM]	IC50 [3] [nM]	AUC (Mouse pharmacokinetics) [ng·h/mL]	Solubility class in words (Solubility test in water)	SMILES	% TGI [4, 5] [%]	% TGI [4, 6] [%]	% TGI ([4]; 30 mg/kg po qd x 5, 3 consecutive weeks) [%]	% TGI ([4]; 60 mg/kg po qd x 5, 3 consecutive weeks) [%]
				472	Sparingly soluble	CC(C)NC1CN(C(=O)c2cc(Cc3n[nH]c(=O)c4ccccc34)ccc2F)C1.Cl [Compound I-159, 4-(4-fluoro-3-(3-(isopropylamino)azetidine-1-carbonyl)benzyl)phthalazin-1(2H)-one hydrochloride]	59.4	69.4		
	50 to 300		≤ 5			O=C(c1cc(Cc2n[nH]c(=O)c3ccccc23)ccc1F)N1CC[C@@H](Nc2ncc(Br)cn2)C1 [Compound I-130, (R)-4-(3-(3-((5-bromopyrimidin-2-yl)amino)pyrrolidine-1-carbonyl)-4-fluorobenzyl)phthalazin-1(2H)-one]				
	> 1000		300 to 1000			CC(C)(C)NCC1CN(C(=O)c2cc(Cc3n[nH]c(=O)c4ccccc34)ccc2F)C1 [Compound I-147, 4-(3-(3-((tert-butylamino)methyl)azetidine-1-carbonyl)-4-fluorobenzyl)phthalazin-1(2H)-one]				
				673	Sparingly soluble	Cl.O=C(c1cc(Cc2n[nH]c(=O)c3ccccc23)ccc1F)N1CC(CNC2CC2)C1 [Compound I-171, 4-(3-(3-((cyclopropylamino)methyl)azetidine-1-carbonyl)-4-fluorobenzyl)phthalazin-1(2H)-one hydrochloride]			42.1	69.7
				1020	Sparingly soluble	CC(C)CNC1CN(C(=O)c2cc(Cc3n[nH]c(=O)c4ccccc34)ccc2F)C1.Cl [Compound I-161, 4-(4-fluoro-3-(3-(isobutylamino)azetidine-1-carbonyl)benzyl)phthalazin-1(2H)-one hydrochloride]				
				2250		Cl.O=C(c1cc(Cc2n[nH]c(=O)c3ccccc23)ccc1F)N1CC(NCC2CC2)C1 [Compound I-160, 4-(3-(3-((cyclopropylmethyl)amino)azetidine-1-carbonyl)-4-fluorobenzyl)phthalazin-1(2H)-one hydrochloride]	55.8	88.2		
	> 1000	5 to 50	300 to 1000			O=C(c1cc(Cc2n[nH]c(=O)c3ccccc23)ccc1F)N1CC(Nc2ccc(Cl)nn2)C1 [Compound I-114, 4-(3-(3-((6-chloropyridazin-3-yl)amino)azetidine-1-carbonyl)-4-fluorobenzyl)phthalazin-1(2H)-one]				
	> 1000		50 to 300			O=C(c1cc(Cc2n[nH]c(=O)c3ccccc23)ccc1F)N1CC(CNc2ccccc2)C1 [Compound I-150, 4-(4-fluoro-3-(3-((phenylamino)methyl)azetidine-1-carbonyl)benzyl)phthalazin-1(2H)-one]				

Reference: patent US9844550B2, “Phtalazinone derivatives and manufacturing process thereof” (ILDONG PHARM CO., LTD., priority 2013, dated 2017)
